According to patent publication US12552802B2, “Fused [7,5] bicyclic pyrazole derivatives and methods of use thereof for the treatment of herpesviruses” (Merck Sharp & Dohme LLC, priority 2020, dated 2026):

Legend:
[1] = target: T1, Human cytomegalovirus (HCMV) DNA polymerase (Human cytomegalovirus, UniProt P08546); assay: HCMV polymerase assay; format: biochemical; conditions: polymerase 0.2 nM, AlphaLISA detection; read-out: CMV (IC50)
T1 construct: made in house; host or cells: SF21 insect cells (baculovirus vector)
T1 sequence (P08546 whole entry): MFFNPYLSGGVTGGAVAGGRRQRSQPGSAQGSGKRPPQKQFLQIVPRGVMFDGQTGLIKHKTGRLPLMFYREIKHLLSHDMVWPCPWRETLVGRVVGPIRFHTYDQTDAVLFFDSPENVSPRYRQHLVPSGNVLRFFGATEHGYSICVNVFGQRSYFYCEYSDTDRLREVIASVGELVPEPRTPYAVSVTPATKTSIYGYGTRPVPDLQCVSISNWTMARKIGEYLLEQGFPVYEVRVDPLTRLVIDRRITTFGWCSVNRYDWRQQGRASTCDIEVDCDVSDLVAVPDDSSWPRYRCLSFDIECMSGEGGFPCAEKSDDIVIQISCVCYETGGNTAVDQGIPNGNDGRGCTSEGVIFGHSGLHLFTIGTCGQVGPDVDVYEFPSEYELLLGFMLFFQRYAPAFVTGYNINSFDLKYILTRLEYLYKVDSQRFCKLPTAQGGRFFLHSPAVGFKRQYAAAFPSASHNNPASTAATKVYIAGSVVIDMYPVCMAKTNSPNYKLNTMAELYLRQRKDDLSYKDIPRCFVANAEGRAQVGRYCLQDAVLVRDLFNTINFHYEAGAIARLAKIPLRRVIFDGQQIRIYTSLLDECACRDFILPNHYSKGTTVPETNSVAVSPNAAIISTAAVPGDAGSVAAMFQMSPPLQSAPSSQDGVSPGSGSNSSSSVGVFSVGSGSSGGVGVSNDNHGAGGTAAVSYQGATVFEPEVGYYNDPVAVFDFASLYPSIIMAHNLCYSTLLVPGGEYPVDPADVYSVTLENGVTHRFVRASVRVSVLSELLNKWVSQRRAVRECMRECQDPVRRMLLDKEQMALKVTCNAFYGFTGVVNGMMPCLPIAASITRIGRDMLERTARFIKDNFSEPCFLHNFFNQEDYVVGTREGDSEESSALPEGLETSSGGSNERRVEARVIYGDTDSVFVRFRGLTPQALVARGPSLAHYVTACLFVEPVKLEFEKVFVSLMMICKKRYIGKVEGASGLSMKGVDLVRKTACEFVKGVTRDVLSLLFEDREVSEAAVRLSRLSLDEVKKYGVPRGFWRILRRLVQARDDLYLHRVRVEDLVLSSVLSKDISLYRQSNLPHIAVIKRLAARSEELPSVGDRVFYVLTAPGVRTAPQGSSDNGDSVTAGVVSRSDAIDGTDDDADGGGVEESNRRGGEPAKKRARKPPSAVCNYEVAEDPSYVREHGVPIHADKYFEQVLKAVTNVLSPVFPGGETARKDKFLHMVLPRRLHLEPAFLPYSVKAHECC
Procedure: (§1) Human cytomegalovirus (HCMV) and varicella zoster virus (VZV) DNA polymerases were expressed via baculovirus vector in SF21 cells and purified. Heterodimeric nucleic acid substrate used in the herpesvirus polymerase reactions was generated by annealing a 59-mer template to a 17-mer digoxigenin-labeled primer. Polymerase (HCMV final concentration of 0.2 nM; VZV final concentration of 0.4 nM) was combined with an inhibitor compound or DMSO in assay buffer (10 mM HEPES, pH 7.5, 25 mM KCl, 25 mM NaCl, 5 mM MgCl2, 5% glycerol, 0.67 mg/ml bovine serum albuminutes (albuminate?), and 1 mM tris(2-carboxyethyl)phosphine), and this mixture was pre-incubated for 30 minutes at room temperature in 384-well microtiter plates. The polymerization reaction was initiated by the addition of template/primer substrate (final concentration: 1.6 nM), and dNTPs (final concentration: 24 nM dCTP, 24 nMdGTP, 16 nM dATP, 16 nM dTTP, and 0.8 nM biotin-dUTP). After 60 minutes incubation at 37° C., reactions were terminated with quench buffer (25 mM HEPES pH 7.5, 100 mM NaCl, 0.25% Tween-20, 12 mM EDTA, and 1 mg/ml bovine serum albumin). Incorporation of biotinylated UTP was detected with 2.5-5 ug/ml anti-DIG AlphaLISA acceptor beads and 5-10 ug/ml streptavidin AlphaLISA donor beads (Perkin Elmer). Compound effects were normalized to the window defined by the controls (DMSO only and pre-quenched wells), and were fit using a 4-parameter algorithm to report an IC50.

[2] = target: T2, varicella zoster virus (VZV) DNA polymerase (Varicella-zoster virus, UniProt P09252); assay: VZV polymerase assay; format: biochemical; conditions: polymerase 0.4 nM, AlphaLISA detection
T2 construct: made in house; host or cells: SF21 insect cells (baculovirus vector)
T2 sequence (P09252 whole entry): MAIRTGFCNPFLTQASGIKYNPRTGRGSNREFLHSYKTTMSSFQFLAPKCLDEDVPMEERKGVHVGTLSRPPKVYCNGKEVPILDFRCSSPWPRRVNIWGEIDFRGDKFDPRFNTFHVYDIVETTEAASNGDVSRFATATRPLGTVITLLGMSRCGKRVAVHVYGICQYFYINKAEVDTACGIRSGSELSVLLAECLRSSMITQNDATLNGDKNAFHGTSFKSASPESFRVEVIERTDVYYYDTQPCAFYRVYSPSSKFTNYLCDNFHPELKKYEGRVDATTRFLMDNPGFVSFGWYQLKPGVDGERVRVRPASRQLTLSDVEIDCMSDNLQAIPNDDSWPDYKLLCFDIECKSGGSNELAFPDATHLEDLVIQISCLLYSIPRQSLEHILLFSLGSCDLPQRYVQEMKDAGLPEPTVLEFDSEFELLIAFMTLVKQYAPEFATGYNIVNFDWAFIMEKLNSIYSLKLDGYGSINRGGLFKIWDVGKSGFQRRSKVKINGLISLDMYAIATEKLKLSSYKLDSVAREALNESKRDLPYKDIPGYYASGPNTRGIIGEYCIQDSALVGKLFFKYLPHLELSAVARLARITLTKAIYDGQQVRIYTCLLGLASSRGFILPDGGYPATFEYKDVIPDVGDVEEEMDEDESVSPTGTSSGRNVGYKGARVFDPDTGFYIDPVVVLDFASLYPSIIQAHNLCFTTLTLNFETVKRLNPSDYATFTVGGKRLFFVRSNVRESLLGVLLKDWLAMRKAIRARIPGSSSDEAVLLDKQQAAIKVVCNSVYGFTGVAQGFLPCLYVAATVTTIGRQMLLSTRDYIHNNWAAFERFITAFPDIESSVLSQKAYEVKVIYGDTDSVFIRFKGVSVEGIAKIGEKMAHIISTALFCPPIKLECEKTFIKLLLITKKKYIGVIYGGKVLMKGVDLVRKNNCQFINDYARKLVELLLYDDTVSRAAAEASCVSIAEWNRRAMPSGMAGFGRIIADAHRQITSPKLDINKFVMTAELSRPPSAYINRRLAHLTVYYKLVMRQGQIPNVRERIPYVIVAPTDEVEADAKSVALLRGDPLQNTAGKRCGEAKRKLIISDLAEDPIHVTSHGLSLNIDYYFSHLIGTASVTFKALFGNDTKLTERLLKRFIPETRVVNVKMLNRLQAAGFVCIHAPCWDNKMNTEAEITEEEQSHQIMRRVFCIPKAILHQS
Procedure: as §1

HCMV Strain AD169 = assay: Viral qPCR assay, CMV in MRC5 cells; format: cell-based, Human cytomegalovirus; conditions: Human betaherpesvirus 5, AD169, ~72 hrs, viral genome copies by qPCR, read-out: CMV MRC5 Cell (EC50)
Procedure: (§2) MRC5 cells, Vero cells, and MeWo cells were obtained from ATCC and were maintained at 37° C./5% CO2/90% relative humidity in Minimal Essential Medium with 10% fetal bovine serum, […] L-glutamine, 100 units/ml penicillin and 100 ug/ml streptomycin. Assay plates were prepared by dispensing compounds dissolved in DMSO into wells of 384 well collagen-coated plates using an ECHO acoustic dispenser. Each compound was tested in a 10-point, serial 3-fold dilution. Controls included uninfected cells and infected cells treated only with DMSO. Assays were initiated by mixing selected cells, in suspension, with virus, and dispensing 50 μl/well infected cells to pre-plated compounds. Plates were incubated at 37° C./5% CO2/90% relative humidity for ˜72 hrs to permit genomic replication, and infected cells were lysed by the addition of an equal volume of lysis buffer (10 mM Tris-HCl, pH8, 50 mM KCl, 2 mM MgCl2, 0.45% NP-40, 0.45% Tween-20, and 100 μg/ml proteinase K). […] Levels of a viral gene and of the cellular control, PPIA (Thermo Fisher Assay ID=Hs04194521_s1), were measured in separate 10 μL qPCR assays using TaqMang Gene Expression Master Mix (Applied Biosystems), and an 7900HT Fast Real-Time PCR System with 384-Well Block Module. 7-point, serial 10-fold dilutions of a plasmid standard were run on each plate to generate a standard curve, and genome copies numbers were calculated by plotting experimental Ct onto linear regression of the standard curve. […] Calculated % effects were fit using a 4-parameter algorithm, and EC50 was reported.
(§3) MRC5 cells, Vero cells, and MeWo cells were obtained from ATCC and were maintained at 37° C./5% CO2/90% relative humidity in Minimal Essential Medium with 10% fetal bovine serum, […] L-glutamine, 100 units/ml penicillin and 100 ug/ml streptomycin. […] Levels of a viral gene were measured in 10 μL qPCR assays using TaqMang Gene Expression Master Mix (Applied Biosystems), and an 7900HT Fast Real-Time PCR System with 384-Well Block Module. […]

VZV = assay: Viral qPCR assay, VZV in MeWo cells; format: cell-based, varicella zoster virus; conditions: Human alphaherpesvirus 3, ~72 hrs, viral genome copies by qPCR, read-out: VZV MEWO Cell (IC50)
Procedure: as §2, §3

HSV-1 Strain F = assay: Viral qPCR assay, HSV1 in Vero cells; format: cell-based; conditions: Human alphaherpesvirus 1, ~72 hrs, viral genome copies by qPCR, read-out: HSV1 VERO Cell (EC50)
Procedure: as §2, §3

HSV2 = assay: Viral qPCR assay, HSV2 in Vero cells; format: cell-based; conditions: Human alphaherpesvirus 2, ~72 hrs, viral genome copies by qPCR, read-out: HSV2 VERO Cell (EC50)
Procedure: as §2, §3

Row | IC50 [1] | IC50 [2] | IC50 (VZV) | EC50 (HSV-1 Strain F) | EC50 (HSV2) | Compound | EC50 (HCMV Strain AD169)
1 | 0.802 µM | 0.26 µM | 1.96 µM | 3.29 µM | 7.97 µM | Cn1nc(C(=O)NCc2ccc(Cl)cc2)c2c1CCN(C[C@H]1COC(=O)N1)CC2 [Compound 1] | 3.72 µM
2 | 0.762 µM | 0.251 µM | 2.99 µM | 3.27 µM | 5.68 µM | Cn1nc(C(=O)NCc2ccc(Cl)cc2)c2c1CCN(C[C@H]1CCC(=O)N1)CC2 [Compound 2] | 8.68 µM
3 | 0.805 µM | 0.373 µM | 1.44 µM | 4.58 µM | 7.82 µM | Cc1nnn(C)c1CN1CCc2c(C(=O)NCc3ccc(Cl)cc3)nn(C)c2CC1 [Compound 3] | 12.4 µM
